Several values for one entry are separate records, joined by “and”; a condition that tells them apart may be missing. Equal entries are not always repeated.
Tests used:
KPC PDAC tumors = assay: Picrosirius red staining of KPC tumors (Fig. 1g); assay type: in vivo, mouse; conditions: KPC tumour bearing mice, Gem 100 mg/kg twice weekly i.p. for 15 cycles, individual animals
Description: Fig. 1 Characterization of LOX family in PDAC. a,b, Kaplan–Meier curves for 5-year overall survival for lysyl oxidase family scores in the APGI/ICGC (low, n = 90 patients; high, n = 89 patients) (a) and TCGA (low, n = 57 patients; high, n = 58 patients) (b) PDAC datasets. Lines represent upper and lower tertiles. The lysyl oxidase family expression score is weighted by the Cox proportional hazards model coefficients for each family member. P values determined by log-rank (Mantel–Cox) test. c, Representative images of picrosirius red stained tumor cores from APGI/ICGC tumor microarrays. […] P values determined by log-rank (Mantel–Cox) test. e, Human LOX and LOXL2 plasma concentrations in healthy (n = 30 patient samples) and patients with PDAC (n = 12 patient samples) determined by SiMoA. […] Scale bars, 100 μm. g, Quantitative comparison of picrosirius red staining in tumors from KPC tumor-bearing mice treated with either saline vehicle or gemcitabine (n = 10 biologically independent animals per group). […] Two-tailed P values determined by unpaired, nonparametric t-tests with a Mann–Whitney U-test correction (comparison between two groups). […]

Hepatocyte stability = assay type: in vitro ADME; conditions: hepatocytes; In vitro (human)
[1] = test system: Lysyl oxidase family activity in ear; assay: Target engagement: lysyl oxidase family activity in ear after single 30 mg/kg oral dose (Fig. 2g); assay type: in vivo, rat; parameters: Lysyl oxidase family activity in the ear: unit not given here; conditions: rats; for Lysyl oxidase family activity in the ear: single 30 mg/kg oral, individual samples, 30 mg/kg
Procedure: Data are presented as mean ± s.d. Two-tailed P value determined by unpaired, nonparametric t-test with a Mann–Whitney U-test correction (comparison to PBS control). h, Lysyl oxidase family activity measured in freshly excised aorta determined by fluorometric activity assay n = 19 (PBS), 5 (4–120 h) biological independent samples. Data presented as mean ± s.d. Two-tailed P value determined by unpaired, nonparametric t-test with a Mann–Whitney U-test correction (comparison to PBS control).
To confirm that PXS-5505 inhibits lysyl oxidase family enzymatic activity in tissues, target engagement experiments were performed following a single oral dose (30 mg kg^−1) in rats. […] Lysyl oxidase family activity was measured in two tissues; aorta (core tissue) and ear (peripheral tissue).

| Structure (SMILES) | picrosirius red staining in tumours (KPC PDAC tumors) | remaining at 1 h (Hepatocyte stability) [%] | recovery of lysyl oxidase family activity in the ear ([1]; single 30 mg kg−1 oral, over 120 h) | Lysyl oxidase family activity in the ear ([1]; 4 h) | Lysyl oxidase family activity in the ear ([1]; 24 h) | Lysyl oxidase family activity in the ear ([1]; 48 h) | Lysyl oxidase family activity in the ear ([1]; 120 h) |
| --- | --- | --- | --- | --- | --- | --- | --- |
| Nc1ccn([C@@H]2O[C@H](CO)[C@@H](O)C2(F)F)c(=O)n1 [Gem, gemcitabine] | 26.8678 and 24.1241 and 47.4949 and 47.2536 and 61.2999 and 20.5678 and 34.5947 and 25.1726 and 42.1276 and 82.533 | – | – | – | – | – | – |
| Cl.Cl.NC/C=C(\F)CS(=O)(=O)c1cccc2cccnc12.O [PXS-5505, (Z)-3-fluoro-4-(quinolin-8-ylsulfonyl)but-2-en-1-amine dihydrochloride monohydrate] | – | 90 | approximately 50% | 45.365 and 48.796 and 39.3331 and 45.8641 and 44.4191 | 63.1181 and 58.052 and 51.7601 and 46.8877 and 41.975 | 53.5883 and 61.6934 and 50.7554 and 53.1219 | 62.7632 and 56.3978 and 53.8738 and 91.7643 |

Reference: publication PMC10518255, “A first-in-class pan-lysyl oxidase inhibitor impairs stromal remodeling and enhances gemcitabine response and survival in pancreatic cancer” (Nature Cancer, 2023)
